Experimental data as given in patent publication US20250099684A1, “HYDROGEN PEROXIDE SOLUTION-PREFILLED SYRINGE WITH EXCELLENT HYDROGEN PEROXIDE PRESERVATION DUE TO SILICONE OIL INCLUDED IN OIL COMPOSITION” (KORTUC Inc., priority 2019, published 2025).
Like-named read-outs stand apart in the source and are kept apart here.

Conditions: sealed, stored at 60° C. for 4 weeks, Oxydol "KENEI" 2.5 to 3.5% (w/v) hydrogen peroxide

## OO [hydrogen peroxide]
Glass container coated with the silicone oil (Dow Corning 360 Medical Fluid, 12,500 cSt)
  residual ratio of hydrogen peroxide: ≥ 78%
Glass container not coated with the silicone oil
  residual ratio of hydrogen peroxide: about 70%
